Like-named read-outs stand apart in the source and are kept apart here.
Tests used:
[1] = Chemical stability in human blood plasma; type: in vitro ADME; details: pooled human blood plasma; 10 μm; 4 hours at 37° C.; substance amount remaining
Procedure: 2) Determination of chemical stability in human blood plasma.
Determination of stability in human blood plasma was performed using pooled human blood plasma taken from ten healthy donors. The initial candidate solution (10 mM in DMSO) was diluted with pooled blood plasma to a concentration of 10 μm (test solution). The test solution was incubated in a dry block thermostat for 4 hours at 37° C. HPLC with Agilent 1200 liquid chromatography system (Agilent, USA) was employed to determine peak areas of the compounds in test samples, said peak areas corresponding to the initial test time (prior to incubation) and the final test time (after incubation in a dry block thermostat for 4 hours at 37° C.), proteins were preliminarily precipitated with acetonitrile. We used gradient elution (1 mL/min flow rate). Substance amount in % in a sample after thermostatting was determined.
The stability of the compounds was estimated.

[2] = Enzyme stability in human liver S9 fractions; type: in vitro ADME; details: 0.5 mg/mL pooled human liver S9 fractions; 10 μM compound; 37° C.; pH 7.4; read-out: Stability in liver S9 fractions, Clint
Procedure: Determination of enzyme stability.
Measuring of candidate enzyme stability enabled estimation of the stability of the compounds towards the action of liver enzymes.
Enzyme degradation rate was measured by incubating the reaction mixture in a dry block thermostat at 37° C., said reaction mixture comprising 0.5 mg/mL of pooled human liver S9 fractions (XenoTech, USA, cat # H0610), 10 μM compound, 2 mM β-nicotinamide adenine dinucleotide (Carbosynth, UK, cat # NN10871) and 4 mM magnesium chloride in 0.1 M sodium-phosphate buffer, pH=7.4. The reaction was quenched with acetonitrile (100 μL of acetonitrile/100 μL of the reaction mixture). After quenching, the samples were centrifuged at 10000 rpm for 10 minutes. Supernatant fluid was tested by chromatographic technique using Agilent1200 (Agilent, USA). We used gradient elution (1 mL/min flow rate). A graph of the logarithm of substance's peak area as a function of time was made. The dependent factor of the line corresponded to the elimination rate constant K based on which the drug's half-life T½ and intrinsic clearance CLint were calculated:
Based on the data obtained, candidate enzyme stability in human liver S9 fractions was determined (see Table 11).

[3] = molecular target: T1, WT EGFR (Wild-Type EGFR) (Homo sapiens, UniProt P00533); assay: Inhibition of WT EGFR kinase activity (ADP-Glo); type: biochemical
T1 construct: purchased SignalChem
Procedure: (§1) To assess IC50 values of the compounds disclosed herein, a biochemical assay of inhibition of kinase activity in a non-cellular system and a functional cellular anti-proliferation assay were used.
(§2) To assess inhibition of WT EGFR (Wild-Type EGFR), DM EGFR (DoubleMutantEGFR, L828R/T790M) kinase activity, SignalChem kinase system and ADP-Glo™ Kinase Assay (V9102, Promega) detection kit were used.
(§3) The measurements were carried out in a 25 μL reaction volume using a 96-well plate. […] The solution of 0.5 mg/mL peptide substrate and 50 μM ATP in the same buffer were added; the solution was incubated for 180 minutes at 37° C. To detect the amount of ATP taken up during the kinase reaction, the ADP Glo Detection Kit (V9102, Promega) was used. The luminescence was measured with the Infinite M200Pro plate spectrophotometer (Tecan, Switzerland). IC50 values were calculated using Magellan 7.2 software (Tecan, Switzerland) approximating experimental points by four-parameter logistic model with the optimization by Levenberg-Marquardt (Table 14).

[4] = molecular target: T2, DM EGFR (DoubleMutantEGFR, L828R/T790M) (Homo sapiens, UniProt P00533, L858R/T790M); assay: Inhibition of DM EGFR kinase activity (ADP-Glo); type: biochemical; details: for IC50: inhibition of kinase activity, EGFR DM (L828R/T790M); for SI, IC50(WT)/IC50(DM): selectivity index, kinase EGFR WT vs EGFR DM
T2 construct: purchased SignalChem
Procedure: as §1, §2, §3

[5] = test system: A549 (lung adenocarcinoma, WT); assay: Antiproliferative activity on A549 cells (Alamar Blue); type: cell-based; details: Homo sapiens, antiproliferative test
Procedure: (§4) Antiproliferative activity of EGFR inhibitors (Tables 15 and 16) was measured in cell-based bioassay on continuous epithelial cell cultures: A549 (lung adenocarcinoma, ATCC® CRM-CCL-185™—WT), HCC827 (lung adenocarcinoma, ATCC® CRL-2868™—SM (SingleMutantEGFR, exon19delE746-A750)) and H1975 (lung adenocarcinoma, ATCC® CRL-5908™—DM (DoubleMutantEGFR, L828R/T790M)) using cell viability reagent Alamar Blue (ThermoFisher, # DAL1100). Cells were cultured in 10% FBS-supplemented (Gibco, #16140071) RPMI-1640 (PanEco, S330p) for at least 1 passage after thawing, washed with PBS and passaged in 96-well culture plates (3599, Corning) with RPMI-1640 growth medium supplemented with 2% FBS in an amount of 5*10^3 cells/well for A549, 10*10^3 cells/well for HCC827 and 15*10^3 cells/well for H1975 in 100 μL, and incubated at 37° C. in an incubator (Thermo Forma, USA) under 5% of CO2 for 16-18 h for cell attachment.
(§5) The test compounds were dissolved in DMSO in the selected range of concentrations and transferred to RPMI-1640 medium (PanEco, S330p) supplemented with 2% FBS. After adding 50 μl of the prepared dilutions to the cells, the incubation mixture contained the final concentrations of the test substances and no more than 1% DMSO. The plates were Incubated at 37° C. for 72 h. After incubation, 15 μl of Alamar Blue vital dye (ThermoFisher, # DAL1100) was added to each well. The plates were shaken on an orbital shaker (Biosan, Latvia) and further incubated for 3-5 h in a CO2 incubator (Thermo Forma, USA). Number of living cells was estimated using a plate spectrophotometer Infinite M200Pro, (Tecan, Switzerland) measuring fluorescent signal at the excitation wavelength (λEx) of 540 nm and emission wavelength (λEm) of 590 nm.
IC50 was calculated using Magellan 7.2 software (Tecan, Switzerland) approximating experimental points by four-parameter logistic model with the optimization by Levenberg-Marquardt.
(§6) The ratio between IC50 for cell lines containing wild-type EGFR (A549) and IC50 for cell lines containing target mutation L828R/T790M (H1975) is the selectivity index (SI): […]

[6] = test system: H1975 (lung adenocarcinoma, DM, L828R/T790M); assay: Antiproliferative activity on H1975 cells (Alamar Blue); type: cell-based; details: for IC50: Homo sapiens, NCI-H1975, H1975 cells; for SI IC50(A549)/IC50(DM): selectivity index, A549 vs H1975 cells
Procedure: as §4, §5
IC50 was calculated using Magellan 7.2 software (Tecan, Switzerland) approximating experimental points by four-parameter logistic model with the optimization by Levenberg-Marquardt. […]
as §6

[7] = General cytotoxicity on HepG2 cells; type: cell-based; details: human; general cytotoxicity, HepG2 cells, 72 hours, average of several tests
Procedure: (§7) The CC50 values were determined in the test for General cytotoxicity on HepG2 cells (rhepatocellular carcinoma, ATCC® HB-8065™) (Table 16). The cells were subcultured in DMEM medium (PanEco, S420p) supplemented with 10% FBS (Gibco, #16140071) for at least 1 passage after thawing, washed with PBS and passaged in 96-well culture plates (3599, Corning) at a concentration of 2*10^4 cells/100 μL per well, and incubated for 16-18 h. The test substances were titrated in DMSO and transferred to DMEM (PanEco, S420p) medium supplemented with 2% FBS, added to the cells and incubated at 37° C. for 72 hours; viability of the cells was then assessed using Alamar Blue dye (ThermoFisher, # DAL1100). CC50 was determined similarly to IC50.
(§8) The ratio between CC50 for HepG2 cell line and IC50 for H1975 cell line is the therapeutic index (TI): […]

[8] = test system: HepG2 cells; assay: General cytotoxicity on HepG2 cells; type: cell-based; details: therapeutic index, CC50 HepG2 / IC50 H1975
Procedure: as §7, §8

[9] = average values obtained in several tests, Table 16, read-out: H1975 (DM) IC50
[10] = antiproliferative test, Table 15, read-out: IC50 H1975 (DM)

SMILES | Stability in blood plasma, % [1] [%] | Intrinsic clearance in human liver S9 fractions at 10 µM [2] [µL/min/mg] | IC50 [3] [nM] | IC50 [4] [nM] | SI, IC50(WT)/IC50(DM) [4] | IC50 [5] [µM] | IC50 [6, 9] [nM] | IC50 [6, 10] [nM] | SI IC50(A549)/IC50(DM) [6] | CC50 at 72 h [7] [µM] | TI, CC50/IC50 [8]
C=CC(=O)Nc1cc(Nc2cc(C(=O)c3ccc(OC)cc3OC)ccn2)c(OC)cc1N(C)CCN(C)C [EGFR_3365_87, N-(5-((4-(2,4-dimethoxybenzoyl)pyridin-2-yl)amino)-2-((2-(dimethylamino)ethyl)(methyl)amino)-4-methoxyphenyl)acrylamide] | 73.3 | 11.6 | 67.4 | 2.75 | 24.50 | 8.02 | 57.6 | 57.6 | 139 | 19.5 | 338
C=CC(=O)Nc1cc(Nc2cc(C(=O)c3ccccc3OC)ccn2)c(OC)cc1N(C)CCN(C)C [EGFR_3365_88, N-(2-((2-(dimethylamino)ethyl)(methyl)amino)-4-methoxy-5-((4-(2-methoxybenzoyl)pyridin-2-yl)amino)phenyl)acrylamide] | 68.2 | 17 | 78.2 | 5.09 | 15.37 | 14.9 | 62.6 | 62.6 | 238 | 26.9 | 429
C=CC(=O)Nc1cc(Nc2cc(C(=O)c3ccc(OCCOC)cc3)ccn2)c(OC)cc1N(C)CCN(C)C [EGFR_3365_93, N-(2-((2-(dimethylamino)ethyl)(methyl)amino)-4-methoxy-5-((4-(4-(2-methoxyethoxy)benzoyl)pyridin-2-yl)amino)phenyl) acrylamide] | 96.3 | 19.5 | 41.5 | < 1 | >41.48 | 9.15 | 104 | 104 | 88 | 23.6 | 227
C=CC(=O)Nc1cc(Nc2nccc(C(=O)c3ccc(OCCC)cc3OC)n2)c(OC)cc1N(C)CCN(C)C [EGFR_3365_101, N-(2-((2-(dimethylamino)ethyl)(methyl)amino)-4-methoxy-5-((4-(2-methoxy-4-propoxybenzoyl)pyrimidin-2-yl)amino)phenyl)acrylamide] | 99.2 | 21.3 | 29.3 | 2.54 | 11.55 | 8.32 | 12.9 | 12.9 | 645 | 16 | 1238

Further lines, with some results ahead:

Stability in blood plasma, % [1] [%] | Intrinsic clearance in human liver S9 fractions at 10 µM [2] [µL/min/mg] | IC50 [3] [nM] | IC50 [4] [nM] | SI, IC50(WT)/IC50(DM) [4] | IC50 [5] [µM] | IC50 [6, 9] [nM] | IC50 [6, 10] [nM] | SMILES | SI IC50(A549)/IC50(DM) [6] | CC50 at 72 h [7] [µM] | TI, CC50/IC50 [8]
96.2 | 20.4 | 22.6 | 2.14 | 10.60 | 12.6 | 13.2 | 13.2 | C=CC(=O)Nc1cc(Nc2nccc(C(=O)c3ccc(OC(C)C)cc3OC)n2)c(OC)cc1N(C)CCN(C)C [EGFR_3365_103, N-(2-((2-(dimethylamino)ethyl)(methyl)amino)-5-((4-(4-isopropoxy-2-methoxybenzoyl)pyrimidin-2-yl)amino)-4-methoxyphenyl) acrylamide] | 954 | 29.4 | 2232
77.2 | 21.8 | 113 | 6.42 | 17.61 | 3.78 | 258 | 258 | C=CC(=O)Nc1cc(Nc2nccc(C(=O)c3ccc(OC)cc3OC(C)C)n2)c(OC)cc1N(C)CCN(C)C [EGFR_3365_104] | 15 | 18.7 | 73
89.4 | 11.3 | 109 | 2.93 | 37.17 | 84.1 | 21.6 | 21.6 | C=CC(=O)Nc1cc(Nc2nccc(C(=O)c3ccc(NCCOC)cc3)n2)c(OC)cc1N(C)CCN(C)C [EGFR_3365_105, N-(2-((2-(dimethylamino)ethyl)(methyl)amino)-4-methoxy-5-((4-(4-((2-methoxyethyl)amino)benzoyl)pyrimidin-2-yl)amino)phenyl)acrylamide] | 3898 | 45.6 | 2114
